Among the data in ChEMBL document CHEMBL4196131 (J Med Chem, 2018) are IC50 and inhibition values, retold here.

Usually IC50 stands for the midpoint of a concentration-inhibition curve. A word on the inhibition: it is how much of the control response was suppressed.

Assay [1] concerns MCF7. In words: cells. As to conditions: Homo sapiens, MCF7, 72 h.
Assay [2] in a line: Inhibition of NFkappaB in mouse RAW 264.7 cells assessed as reduction in LPS induced NO production after 24 hrs in presence of resveratrol by Griess assay relative to control. Format: cell-based. The conditions noted are these: RAW264.7, 24 h. (Griess reagent forms a coloured azo dye with nitrite.)
The nature of assay [3]: Inhibition of NFkappaB in mouse RAW 264.7 cells assessed as reduction in LPS induced NO production after 24 hrs by Griess assay. The conditions noted are these: RAW264.7, 24 h. Format: cell-based.
In assay [4] the test system is MCF7. In words: Antiproliferative activity against human MCF7 cells after 72 hrs in presence of resveratrol by MTT assay. Type of assay: functional, cell-based. As to conditions: MCF7, 72 h. On the technique in general: Formazan colour is commonly taken as a measure of viable cells.
The species named for assay [5] is Mus musculus. In words: Inhibition of NFkappaB in mouse RAW 264.7 cells assessed as reduction in LPS induced NO production at 10 uM after 24 hrs by Griess assay relative to control. Type of assay: cell-based.
The species entered for assay [6] is Mus musculus. In words: Inhibition of NFkappaB in mouse RAW 264.7 cells assessed as reduction in LPS induced NO production at 10 uM after 24 hrs in presence of resveratrol by Griess assay relative to control. Type of assay: cell-based.

For the compound `O=S(=O)(Oc1ccccc1)[C@H]1C[C@@H]2O[C@@H]1C(c1ccc(O)cc1)=C2c1ccc(O)cc1` (relative stereo), the IC50 in assay [1] is 32 µM; in assay [2] it was 11 µM; in assay [3] it was 18.4 µM; in assay [4] it was 25.4 µM. Further, the values for the inhibition in assay [5] and in assay [6] were 41.5% and 80.4%, respectively.
